Test results as given in the supplement of paper PMC13380429.

What was measured:
[1] = test system: A549-ACE2; assay: phospholipidosis EC50; higher = less potent phospholipidosis inducer
[2] = test system: Caco-2; assay: cell viability relative to DMSO; higher = less toxic; conditions: 72 h
[3] = test system: U2OS; assay: as above; conditions: 72 h
[4] = test system: HepG2; assay: as above; conditions: 72 h
[5] = test system: Vero E6; assay: as above; conditions: 72 h
[6] = test system: Calu-3; assay: as above; conditions: 72 h
[7] = test system: A549-ACE2 infected with SARS-CoV-2; assay: morphology score (similarity to uninfected cells); higher = more like uninfected cells; conditions: 24 h
[8] = test system: A549-ACE2 infected with SARS-CoV-2; assay: SARS-CoV-2 infection rate relative to DMSO; higher = more infection; conditions: 24 h
[9] = test system: A549-ACE2; assay: drug-induced phospholipidosis relative to tamoxifen; higher = more phospholipidosis
[10] = test system: Caco-2; assay: drug sensitivity score (DSS) for viability; higher = more toxic; extreme values may be limits of the assay; conditions: 72 h
[11] = test system: U2OS; assay: as above; conditions: 72 h
[12] = test system: HepG2; assay: as above; conditions: 72 h
[13] = test system: Vero E6; assay: as above; conditions: 72 h
[14] = test system: Calu-3; assay: as above; conditions: 72 h
[15] = test system: A549-ACE2 infected with SARS-CoV-2; assay: cell count relative to DMSO; higher = less toxic; conditions: 24 h
[16] = test system: Caco-2; assay: relative viability EC50 (midpoint between 100% and the lowest measured viability); higher = less toxic; conditions: 72 h
[17] = test system: U2OS; assay: as above; conditions: 72 h
[18] = test system: HepG2; assay: as above; conditions: 72 h
[19] = test system: Vero E6; assay: as above; conditions: 72 h
[20] = test system: Calu-3; assay: as above; conditions: 72 h

Cc1cccc(/C=N/Nc2cc(N3CCOCC3)n3nc(-c4ccncc4)cc3n2)c1 [APY0201]
Conditions	SARS-CoV-2 infection rate [%]	cell count [%]	cell viability [%]	morphology score	phospholipidosis EC50 [µM]
[1], 24 h	–	–	–	–	0.3
[1], 48 h	–	–	–	–	1.08
[1], 72 h	–	–	–	–	0.851
[2], 1 nM	–	–	95.5	–	–
[2], 10 nM	–	–	101	–	–
[2], 100 nM	–	–	92.8	–	–
[2], 1000 nM	–	–	97	–	–
[2], 10000 nM	–	–	80.1	–	–
[3], 1 nM	–	–	94.2	–	–
[3], 10 nM	–	–	97.7	–	–
[3], 100 nM	–	–	93.9	–	–
[3], 1000 nM	–	–	91.2	–	–
[3], 10000 nM	–	–	77.6	–	–
[4], 1 nM	–	–	99.8	–	–
[4], 10 nM	–	–	98.9	–	–
[4], 100 nM	–	–	82.8	–	–
[4], 1000 nM	–	–	31.3	–	–
[4], 10000 nM	–	–	22.3	–	–
[5], 1 nM	–	–	110	–	–
[5], 10 nM	–	–	104	–	–
[5], 100 nM	–	–	96.7	–	–
[5], 1000 nM	–	–	45.6	–	–
[5], 10000 nM	–	–	38.2	–	–
[6], 1 nM	–	–	111	–	–
[6], 10 nM	–	–	101	–	–
[6], 100 nM	–	–	87.8	–	–
[6], 1000 nM	–	–	85.8	–	–
[6], 10000 nM	–	–	98.1	–	–
[7], 0.3 µM	–	–	–	0.21	–
[7], 3 µM	–	–	–	-0.06	–
[7], 10 µM	–	–	–	-0.03	–
[7], 30 µM	–	–	–	-0.04	–
[8], 0.3 µM	41	–	–	–	–
[8], 3 µM	72	–	–	–	–
[8], 10 µM	72	–	–	–	–
[8], 30 µM	65	–	–	–	–
[15], 0.3 µM	–	113	–	–	–
[15], 3 µM	–	98	–	–	–
[15], 10 µM	–	94	–	–	–
[15], 30 µM	–	91	–	–	–

drug-induced phospholipidosis [%], [9]
Conditions	0.3 µM	0.833333 µM	3.33333 µM	6.66667 µM	10 µM	30 µM
24 h	100	98.4	102	100	85.1	97.8
48 h	105	98.3	47.8	39.8	–	61.8
72 h	141	95	33.5	42.7	–	–

Conditions	drug sensitivity score	relative viability EC50 [µM]
[10]	1	–
[11]	1.2	–
[12]	14.8	–
[13]	10.4	–
[14]	2	–
[16]	–	> 10
[17]	–	> 10
[18]	–	0.24
[19]	–	0.392
[20]	–	> 10

CN(C(=O)Cc1ccc(Cl)c(Cl)c1)[C@H](CN1CCCC1)c1ccccc1
Conditions	SARS-CoV-2 infection rate [%]	cell count [%]	cell viability [%]	morphology score	phospholipidosis EC50 [µM]
[1], 24 h	–	–	–	–	3.63
[1], 48 h	–	–	–	–	5.18
[1], 72 h	–	–	–	–	8.35
[2], 1 nM	–	–	96.7	–	–
[2], 10 nM	–	–	103	–	–
[2], 100 nM	–	–	103	–	–
[2], 1000 nM	–	–	103	–	–
[2], 10000 nM	–	–	76	–	–
[3], 1 nM	–	–	96.9	–	–
[3], 10 nM	–	–	99.7	–	–
[3], 100 nM	–	–	101	–	–
[3], 1000 nM	–	–	106	–	–
[3], 10000 nM	–	–	89.9	–	–
[4], 1 nM	–	–	98.1	–	–
[4], 10 nM	–	–	105	–	–
[4], 100 nM	–	–	106	–	–
[4], 1000 nM	–	–	99.4	–	–
[4], 10000 nM	–	–	85.3	–	–
[5], 1 nM	–	–	104	–	–
[5], 10 nM	–	–	101	–	–
[5], 100 nM	–	–	107	–	–
[5], 1000 nM	–	–	102	–	–
[5], 10000 nM	–	–	88.1	–	–
[6], 1 nM	–	–	96.1	–	–
[6], 10 nM	–	–	100	–	–
[6], 100 nM	–	–	90.9	–	–
[6], 1000 nM	–	–	97.1	–	–
[6], 10000 nM	–	–	28.9	–	–
[7], 0.3 µM	–	–	–	-0.06	–
[7], 3 µM	–	–	–	0.89	–
[7], 10 µM	–	–	–	0.84	–
[7], 30 µM	–	–	–	0.1	–
[8], 0.3 µM	97	–	–	–	–
[8], 3 µM	21	–	–	–	–
[8], 10 µM	17	–	–	–	–
[8], 30 µM	36	–	–	–	–
[15], 0.3 µM	–	96	–	–	–
[15], 3 µM	–	118	–	–	–
[15], 10 µM	–	121	–	–	–
[15], 30 µM	–	92	–	–	–

drug-induced phospholipidosis [%], [9]
Conditions	0.3 µM	0.833333 µM	3.33333 µM	6.66667 µM	10 µM	30 µM
24 h	0.7	4.92	51.2	90.6	95.8	112
48 h	4.43	3.22	36.7	77.7	97.8	–
72 h	3.91	2.85	31.5	65.6	90.5	–

Conditions	drug sensitivity score	relative viability EC50 [µM]
[10]	0.7	–
[11]	0	–
[12]	0.3	–
[13]	0	–
[14]	4.3	–
[16]	–	> 10
[17]	–	> 10
[18]	–	> 10
[19]	–	> 10
[20]	–	2.85

NC1(Cc2ccc(Cl)cc2)CCN(c2ncnc3[nH]ccc23)CC1
Conditions	SARS-CoV-2 infection rate [%]	cell count [%]	cell viability [%]	morphology score	phospholipidosis EC50 [µM]
[1], 24 h	–	–	–	–	5.25
[1], 48 h	–	–	–	–	7.16
[1], 72 h	–	–	–	–	8.44
[2], 1 nM	–	–	93.7	–	–
[2], 10 nM	–	–	109	–	–
[2], 100 nM	–	–	95.4	–	–
[2], 1000 nM	–	–	98.2	–	–
[2], 10000 nM	–	–	81.7	–	–
[3], 1 nM	–	–	96.9	–	–
[3], 10 nM	–	–	101	–	–
[3], 100 nM	–	–	93	–	–
[3], 1000 nM	–	–	95	–	–
[3], 10000 nM	–	–	52.6	–	–
[4], 1 nM	–	–	100	–	–
[4], 10 nM	–	–	102	–	–
[4], 100 nM	–	–	94.5	–	–
[4], 1000 nM	–	–	91.1	–	–
[4], 10000 nM	–	–	26.3	–	–
[5], 1 nM	–	–	97.6	–	–
[5], 10 nM	–	–	100	–	–
[5], 100 nM	–	–	96.8	–	–
[5], 1000 nM	–	–	88.5	–	–
[5], 10000 nM	–	–	65.3	–	–
[6], 1 nM	–	–	95.4	–	–
[6], 10 nM	–	–	99.9	–	–
[6], 100 nM	–	–	100	–	–
[6], 1000 nM	–	–	105	–	–
[6], 10000 nM	–	–	77.5	–	–
[7], 0.1 µM	–	–	–	0.13	–
[7], 0.3 µM	–	–	–	-0.05	–
[7], 1 µM	–	–	–	0.15	–
[7], 3 µM	–	–	–	0.48	–
[8], 0.1 µM	99	–	–	–	–
[8], 0.3 µM	106	–	–	–	–
[8], 1 µM	104	–	–	–	–
[8], 3 µM	85	–	–	–	–
[15], 0.1 µM	–	104	–	–	–
[15], 0.3 µM	–	105	–	–	–
[15], 1 µM	–	104	–	–	–
[15], 3 µM	–	105	–	–	–

drug-induced phospholipidosis [%], [9]
Conditions	0.3 µM	0.833333 µM	3.33333 µM	6.66667 µM	10 µM	30 µM
24 h	2.53	6.69	24.4	64.2	86.2	95.1
48 h	0.01	-2.52	9.67	37.5	65.9	86.8
72 h	-2.31	-5.85	5.48	20.6	47.9	73.3

Conditions	drug sensitivity score	relative viability EC50 [µM]
[10]	0.7	–
[11]	3.3	–
[12]	5.6	–
[13]	3	–
[14]	0.5	–
[16]	–	> 10
[18]	–	2.18
[20]	–	> 10

CCCCc1oc2ccc(NS(C)(=O)=O)cc2c1C(=O)c1ccc(OCCCN(CCCC)CCCC)cc1 [dronedarone]
Conditions	SARS-CoV-2 infection rate [%]	cell count [%]	cell viability [%]	morphology score	phospholipidosis EC50 [µM]
[1], 24 h	–	–	–	–	0.926
[1], 48 h	–	–	–	–	2.18
[1], 72 h	–	–	–	–	2.34
[2], 1 nM	–	–	101	–	–
[2], 10 nM	–	–	102	–	–
[2], 100 nM	–	–	94.7	–	–
[2], 1000 nM	–	–	102	–	–
[2], 10000 nM	–	–	44.6	–	–
[3], 1 nM	–	–	100	–	–
[3], 10 nM	–	–	107	–	–
[3], 100 nM	–	–	98.1	–	–
[3], 1000 nM	–	–	102	–	–
[3], 10000 nM	–	–	23	–	–
[4], 1 nM	–	–	110	–	–
[4], 10 nM	–	–	101	–	–
[4], 100 nM	–	–	110	–	–
[4], 1000 nM	–	–	99.6	–	–
[4], 10000 nM	–	–	17.6	–	–
[5], 1 nM	–	–	108	–	–
[5], 10 nM	–	–	105	–	–
[5], 100 nM	–	–	107	–	–
[5], 1000 nM	–	–	100	–	–
[5], 10000 nM	–	–	61.9	–	–
[6], 1 nM	–	–	102	–	–
[6], 10 nM	–	–	108	–	–
[6], 100 nM	–	–	108	–	–
[6], 1000 nM	–	–	102	–	–
[6], 10000 nM	–	–	5.7	–	–
[7], 0.1 µM	–	–	–	0.12	–
[7], 0.3 µM	–	–	–	0.11	–
[7], 1 µM	–	–	–	0.64	–
[7], 3 µM	–	–	–	0.81	–
[8], 0.1 µM	95	–	–	–	–
[8], 0.3 µM	94	–	–	–	–
[8], 1 µM	65	–	–	–	–
[8], 3 µM	13	–	–	–	–
[15], 0.1 µM	–	103	–	–	–
[15], 0.3 µM	–	100	–	–	–
[15], 1 µM	–	111	–	–	–
[15], 3 µM	–	112	–	–	–

drug-induced phospholipidosis [%], [9]
Conditions	0.3 µM	0.833333 µM	3.33333 µM	6.66667 µM	10 µM	30 µM
24 h	5.9	23.1	79.1	94.6	47.9	35
48 h	9.08	19	96	120	–	–
72 h	7.98	17	94.1	122	–	–

Conditions	drug sensitivity score	relative viability EC50 [µM]
[10]	2.8	–
[11]	4.1	–
[12]	4.6	–
[13]	1.8	–
[14]	5.1	–
[16]	–	3.38
[17]	–	3.29
[18]	–	3.13
[20]	–	3.28
